The target in this test is T1, Tyk2/Jak2 (Homo sapiens, UniProt P29597).
T1 construct: Cell Type: Frozen primary phytohemagglutinin (PHA) T-Blasts; endogenous in cells; host or cells: primary PHA T-blasts
Description: Tyk2 (Tyk2/Jak2 PSTAT4 T-Blast) alpha screen assay: inhibition of IL-12 induced phosphorylation of STAT4 in T-blast cells. It is filed as cell-based. The settings on record: IL-12 induced pSTAT4, T-blast cells. On the procedure: 1. TYK2 (TYK2/JAK2 PSTAT4 T-BLAST) ALPHA SCREEN ASSAY
IL-12 is known to transduce its signal through IL-12 receptor via Jak2 and/or Tyk2. For that reason, the activity against Tyk2/Jak2 was measured by determining the inhibition of IL-12 induced phosphorylation of STAT4 in T-blast cells. […] See, e.g., Sohn et al., J. Immunology (2013) 2205-2216.
Cell Type: Frozen primary phytohemagglutinin (PHA) T-Blasts; Culture Medium: Roswell Park Memorial Institute (RPMI) 1640 Medium, 10% heat-inactivated fetal bovine serum (FBS), 1% penicillin/streptomycin (Pen-Strep), 10 mM hydroxyethyl piperazineethanesulfonic acid (HEPES), 10 ng/mL recombinant human interleukin-12 (rhIL-12); Assay Medium: Hank's Balanced Salt Solution (HBSS), no phenol red.
i. Automated 11-point 1:3 dilution curve: 2.5 mM top concentration dispensed in column 1 of a Corning 96-well polypropylene plate. Dimethyl sulfoxide (DMSO) was added to column 12 for high and low controls. Compounds were serially diluted 1:3 by adding 20 uL stock to 40 μL DMSO across the plate via Hamilton Microlab Star instrument.
ii. Media dilution of compounds: Serially diluted compounds were diluted 1:50 in assay medium by adding 4 μL compound to 196 μL assay medium in a Corning 96-well polypropylene plate (now 2% DMSO).
iii. […]
Primary T-Blasts from overnight culture were centrifuged, washed once in assay medium, and pelleted. T-Blasts were counted and resuspended at 12,500,000 cells/mL. […]
Phosphorylated Signal Transducer and Activator of Transcription 4 (pSTAT4) was quantified using the PerkinElmer SureFire Ultra pSTAT4 (Tyrosine 693) Assay. […]
Make master mix of Protein A donor beads using the following volumes per well: 5.88 μL Dilution Buffer and 0.12 μL […]. […] Read plate on Perkin Elmer Envision. […]
Certain compounds listed in Table C were tested for Tyk2 activity following the aforementioned Tyk2 (Tyk2/Jak2 PSTAT4 T-Blast) alpha screen assay and Jak2 (PTATS UT7) alpha screen assay. […] Selectivity for Tyk2 over Jak1, and Tyk2 over Jak2, are calculated from the tabulated activity data.

pEC50: −log10 of the molar value.

By pEC50 is commonly meant −log10 of the EC50, conventionally taken in molar units. Lower therefore signals a large EC50.

T1 sequence (P29597 whole entry, other chains not shown): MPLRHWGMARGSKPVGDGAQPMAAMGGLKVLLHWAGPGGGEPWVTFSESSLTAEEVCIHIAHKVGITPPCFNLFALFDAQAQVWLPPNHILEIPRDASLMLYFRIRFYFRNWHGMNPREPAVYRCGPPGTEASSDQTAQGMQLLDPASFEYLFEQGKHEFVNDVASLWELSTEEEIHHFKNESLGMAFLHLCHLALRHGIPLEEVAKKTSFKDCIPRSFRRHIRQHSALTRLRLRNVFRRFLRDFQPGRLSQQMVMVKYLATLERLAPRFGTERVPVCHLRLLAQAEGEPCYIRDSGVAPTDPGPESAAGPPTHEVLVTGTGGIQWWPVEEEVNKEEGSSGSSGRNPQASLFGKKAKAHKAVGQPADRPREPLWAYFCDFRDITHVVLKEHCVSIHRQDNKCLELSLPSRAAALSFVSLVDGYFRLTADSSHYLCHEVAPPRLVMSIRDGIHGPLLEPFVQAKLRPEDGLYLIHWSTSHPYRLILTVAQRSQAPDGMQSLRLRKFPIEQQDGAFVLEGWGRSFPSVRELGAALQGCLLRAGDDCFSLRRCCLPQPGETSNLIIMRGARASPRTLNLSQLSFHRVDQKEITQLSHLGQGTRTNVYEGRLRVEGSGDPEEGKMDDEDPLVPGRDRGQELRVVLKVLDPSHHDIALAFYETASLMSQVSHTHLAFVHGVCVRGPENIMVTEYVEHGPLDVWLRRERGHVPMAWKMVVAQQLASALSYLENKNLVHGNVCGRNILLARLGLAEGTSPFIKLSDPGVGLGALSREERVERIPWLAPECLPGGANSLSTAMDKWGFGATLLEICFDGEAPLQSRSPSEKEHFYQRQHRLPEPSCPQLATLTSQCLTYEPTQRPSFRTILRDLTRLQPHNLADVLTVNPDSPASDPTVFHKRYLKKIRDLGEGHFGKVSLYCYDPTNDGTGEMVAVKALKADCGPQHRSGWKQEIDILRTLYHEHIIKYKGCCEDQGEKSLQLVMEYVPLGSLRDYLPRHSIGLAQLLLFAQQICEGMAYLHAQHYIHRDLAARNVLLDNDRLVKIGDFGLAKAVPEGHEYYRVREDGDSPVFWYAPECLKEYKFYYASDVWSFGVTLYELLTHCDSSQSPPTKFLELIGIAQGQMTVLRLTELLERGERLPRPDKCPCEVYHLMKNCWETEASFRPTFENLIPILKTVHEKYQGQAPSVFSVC

In turn, `COCc1cc(-c2cn(C)c3cnc(NC(C)=O)cc23)nc([C@]2([C@@H](C)O)CCOC2)c1` [Example 22.4, N-(3-(6-((R)-3-((R)-1-hydroxyethyl)tetrahydrofuran-3-yl)-4-(methoxymethyl)pyridin-2-yl)-1-methyl-1H-pyrrolo[2,3-c]pyridin-5-yl)acetamide] showed a negative logarithm of the EC50 (pEC50) of 6.95.
In turn, `COCc1cc(-c2cn(C)c3cnc(NC(C)=O)cc23)nc([C@]2([C@H](C)O)CCOC2)c1` [Example 22.3, N-(3-(6-((R)-3-((S)-1-hydroxyethyl)tetrahydrofuran-3-yl)-4-(methoxymethyl)pyridin-2-yl)-1-methyl-1H-pyrrolo[2,3-c]pyridin-5-yl)acetamide] had a negative-log EC50 (pEC50) of 6.83.

For the origin of these results see patent publication US10508113B2, “Inhibitors of tyrosine kinase 2 mediated signaling” (AbbVie Inc., priority 2018, dated 2019).
